In patent US8163700B2, “Inhibitors of myelin-associated glycoprotein (MAG) activity for regulating neural growth and regeneration” (Research Foundation of City University of New York, priority 2002, dated 2012):
Entries after “also recorded” stand apart in the source; their conditions may differ.

Experiments:
[1] = system: wild-type MAG-expressing cells; assay: Neurite outgrowth on MAG-expressing cells in the presence of MAG, Nogo and OMgp peptides (Example 6); type: cell-based; details: tested as described in Example 5; example written in present tense
Excerpt: Peptides corresponding to amino acid residues […] of MAG (MAG(343-371)), amino acid residues 363-397 (MAG(363-397)), amino acid residues 394-428 (MAG(394-428)), amino acid residues 422-451 (MAG(422-451)), amino acid residues 442-471 (MAG(442-471)), and amino acid residues 461-498 (MAG(461-498)) were synthesized. Peptides were obtained from SynPep Corp. (Dublin, Calif.). MAG(343-371), MAG(363-397) and MAG(394-428) correspond to amino acid residues from the Ig4 domain of MAG. MAG(422-451), MAG(442-471) and MAG(461-498) corresponds to amino acid residues from the Ig5 domain of MAG. […] Results are shown in FIG. 4 (and are represented as number of neurons with processes longer than 2-times the cell diameter). […] Results are shown in FIG. 5 (and are represented as average neurite length for 180-200 neurons).
Peptides corresponding to MAG amino acid residues 437-441 (M437), 446-455 (M446), 450-455 (M450), 466-471 (M466); and 472-477 (M472) are constructed and tested in neurite outgrowth assays as described in Example 5. (See peptides in FIG. 18).
Peptides corresponding to Nogo-66 amino acid residues 13-17 (N13), 22-31(N22-1), 22-34 (N22-2), 26-31 (N26-1); 26-34 (N26-2); 9-33 (N-9-1); 9-34 (N-9-2); 38-62 (N38); 42-47 (N42); and 48-53 (N48) are also constructed and tested in neurite outgrowth assays as described in Example 5.
Peptides corresponding to OMgp amino acid residues 206-210 (O206), 215-224 (O215), 219-224 (O219), 202-226 (O202); 231-255 (O231), 235-240 (O235) 241-246 (O241) are constructed and tested in neurite outgrowth assays as described in Example 5.

[2] = system: cerebellar neurons; assay: Neurite outgrowth on L1-Fc substrate in the presence of soluble MAG-Fc chimeras (FIG. 3); type: cell-based; details: soluble protein 25 μg/ml, 18 hours, compared to control chimera
Method: FIG. 3 Inhibition of neurite outgrowth from cerebellar neurons by MAG-Fc Derivatives Cerebellar neurons were isolated (Example 1) and plated onto a growth promoting substrate of L1 protein (Example 4). A control MUC-Fc fusion (clear bar), wild-type MAG-Fc (striped bar) and MAG-Fc derivatives having point mutations in MAG Ig-like domains 4 or 5 (grey bars) were constructed (Example 4) and added in soluble form to neurons (25 μg/ml). After 18 hours, cultures were fixed and stained for GAP-43 antigen. Neurite length was measured and the average length was calculated for 180-200 neurons (+/−SEM).
Individual wells of an eight-chamber tissue culture plastic slide (Lab-Tek, Nuc. Inc.) were incubated with 0.3 nil of 16.6 μg/ml poly-1-lysine in sterile water for at least one hour under sterile conditions. Each well was washed twice with 400 μl of a 0.1M sodium bicarbonate solution, pH 9.6, and then received 0.3 ml of 0.1M sodium bicarbonate solution, pH 9.6, containing 15 μg/ml goat anti-human IgG (Fc-specific) monoclonal antibody (Sigma). The wells were incubated for 2 hours (h) at 37° C., and washed three times with 0.4 ml of ice-cold DMEM. Each well then received 0.3 nil of DMEM containing 40 μg/ml of L1-Fc and was incubated for 2-4 h at 37° C. The welts were washed twice DMEM.
Cerebellar neurons (post-natal days 2-7) were dissociated by trypsinization as described in Example 1, except that the dissociated neurons were resuspended in 5 ml of SATO medium containing 2% dialyzed FBS. To an individual well coated with a monolayer of L1-Fc as described above, 5.0×10^4 cerebellar neurons were added, followed by addition of one of the mutant MAG-Fc or MUC18-Fc chimeric soluble protein described above at a concentration of 25 μg/ml. Neurons were cultured for 18 hours at 37° C., and then fixed and stained for GAP43 essentially as described in Example 2. Neurite length was measured for 180-200 neurons.

Molecule	effect on the ability of wild-type MAG-expressing cells to inhibit neurite outgrowth [1]	inhibition of neurite outgrowth (in words) [2]
M437: peptide of MAG amino acid residues 437-441 (SEQ ID NO: 17) (NPEPS)	reduce the ability of the wild-type MAG-expressing cells to inhibit neurite outgrowth	
O219: peptide of OMgp amino acid residues 219-224 (SEQ ID NO: 37) (EITLHN)	reduce the ability of the wild-type MAG-expressing cells to inhibit neurite outgrowth	
N38: peptide of Nogo-66 amino acid residues 38-62 (SEQ ID NO: 32) (SNSALGHVNSTIKELRRLFLVDDLV)	reduce the ability of wild-type MAG-expressing cells to inhibit neurite outgrowth; also recorded: reduce the ability of the wild-type MAG-expressing cells to inhibit neurite outgrowth	
M446: peptide of MAG amino acid residues 446-455 (SEQ ID NO: 18) (LPSRNVTVNE)	reduce the ability of the wild-type MAG-expressing cells to inhibit neurite outgrowth	
M450: peptide of MAG amino acid residues 450-455 (SEQ ID NO: 19) (NVTVNE)	reduce the ability of the wild-type MAG-expressing cells to inhibit neurite outgrowth	
N-9-2: peptide of Nogo-66 amino acid residues 9-34 (LVSSSDSPPRPQPAFKYQFVREPEDE; Nogo-66; UniProt Q9NQC3 9-34, looked up, fragment)	reduce the ability of wild-type MAG-expressing cells to inhibit neurite outgrowth; also recorded: reduce the ability of the wild-type MAG-expressing cells to inhibit neurite outgrowth	
M466: peptide of MAG amino acid residues 466-471 (SEQ ID NO: 21) (SGLLLT)	reduce the ability of the wild-type MAG-expressing cells to inhibit neurite outgrowth	
O231: peptide of OMgp amino acid residues 231-255 (SEQ ID NO: 39) (HKQNITYLLKWVMETKAHVIGTPCS)	reduce the ability of the wild-type MAG-expressing cells to inhibit neurite outgrowth	
O235: peptide of OMgp amino acid residues 235-240 (SEQ ID NO: 40) (ITYLLK)	reduce the ability of the wild-type MAG-expressing cells to inhibit neurite outgrowth	
O241: peptide of OMgp amino acid residues 241-246 (SEQ ID NO: 41) (WVMETK)	reduce the ability of the wild-type MAG-expressing cells to inhibit neurite outgrowth	
M472: peptide of MAG amino acid residues 472-477 (SEQ ID NO: 22) (SILTLR)	reduce the ability of the wild-type MAG-expressing cells to inhibit neurite outgrowth	
N48: peptide of Nogo-66 amino acid residues 48-53 (DLEELE; Nogo-66; UniProt Q9NQC3 48-53, looked up, fragment)	reduce the ability of wild-type MAG-expressing cells to inhibit neurite outgrowth; also recorded: reduce the ability of the wild-type MAG-expressing cells to inhibit neurite outgrowth	
N-9-1: peptide of Nogo-66 amino acid residues 9-33 (LVSSSDSPPRPQPAFKYQFVREPED; Nogo-66; UniProt Q9NQC3 9-33, looked up, fragment)	reduce the ability of wild-type MAG-expressing cells to inhibit neurite outgrowth; also recorded: reduce the ability of the wild-type MAG-expressing cells to inhibit neurite outgrowth	
O202: peptide of OMgp amino acid residues 202-226 (SEQ ID NO: 38) (KFTFIPEQSFDQLLQLQEITLHNNR)	reduce the ability of the wild-type MAG-expressing cells to inhibit neurite outgrowth	
O206: peptide of OMgp amino acid residues 206-210 (SEQ ID NO: 35) (IPEQS)	reduce the ability of the wild-type MAG-expressing cells to inhibit neurite outgrowth	
N42: peptide of Nogo-66 amino acid residues 42-47 (EEDEDE; Nogo-66; UniProt Q9NQC3 42-47, looked up, fragment)	reduce the ability of wild-type MAG-expressing cells to inhibit neurite outgrowth; also recorded: reduce the ability of the wild-type MAG-expressing cells to inhibit neurite outgrowth	
O215: peptide of OMgp amino acid residues 215-224 (SEQ ID NO: 36) (LQLQEITLHN)	reduce the ability of the wild-type MAG-expressing cells to inhibit neurite outgrowth	
MAG(L346D)-Fc: murine MAG-Fc with point mutation L346D, Ig domain 4 (protein, UniProt P20917 20-516, looked up, variant L346D, extracellular domain Fc fusion) extracellular domain: GHWGAWMPSTISAFEGTCVSIPCRFDFPDELRPAVVHGVWYFNSPYPKNYPPVVFKSRTQVVHESFQGRSRLLGDLGLRNCTLLLSTLSPELGGKYYFRGDLGGYNQYTFSEHSVLDIVNTPNIVVPPEVVAGTEVEVSCMVPDNCPELRPELSWLGHEGLGEPTVLGRLREDEGTWVQVSLLHFVPTREANGHRLGCQAAFPNTTLQFEGYASLDVKYPPVIVEMNSSVEAIEGSHVSLLCGADSNPPPLLTWMRDGMVLREAVAKSLYLDLEEVTPGEDGVYACLAENAYGQDNRTVELSVMYAPWKPTVNGTVVAVEGETVSIDCSTQSNPDPILTIFKEKQILATVIYESQLQLELPAVTPEDDGEYWCVAENQYGQRATAFNLSVEFAPIILLESHCAAARDTVQCLCVVKSNPEPSVAFELPSRNVTVNETEREFVYSERSGLLLTSILTIRGQAQAPPRVICTSRNLYGTQSLELPFQGAHRLMWAKIGP		inhibited neurite outgrowth as effectively as MAG-Fc
MAG(E410K)-Fc: murine MAG-Fc with point mutation E410K, Ig domain 4/5 (protein, UniProt P20917 20-516, looked up, variant E410K, extracellular domain Fc fusion) extracellular domain: GHWGAWMPSTISAFEGTCVSIPCRFDFPDELRPAVVHGVWYFNSPYPKNYPPVVFKSRTQVVHESFQGRSRLLGDLGLRNCTLLLSTLSPELGGKYYFRGDLGGYNQYTFSEHSVLDIVNTPNIVVPPEVVAGTEVEVSCMVPDNCPELRPELSWLGHEGLGEPTVLGRLREDEGTWVQVSLLHFVPTREANGHRLGCQAAFPNTTLQFEGYASLDVKYPPVIVEMNSSVEAIEGSHVSLLCGADSNPPPLLTWMRDGMVLREAVAKSLYLDLEEVTPGEDGVYACLAENAYGQDNRTVELSVMYAPWKPTVNGTVVAVEGETVSILCSTQSNPDPILTIFKEKQILATVIYESQLQLELPAVTPEDDGEYWCVAENQYGQRATAFNLSVKFAPIILLESHCAAARDTVQCLCVVKSNPEPSVAFELPSRNVTVNETEREFVYSERSGLLLTSILTIRGQAQAPPRVICTSRNLYGTQSLELPFQGAHRLMWAKIGP		inhibited neurite outgrowth as effectively as MAG-Fc
